In patent US20190269129A1, “COMPOSITION CONTAINING 1,2-DIBROMO-2,4-DICYANOBUTANE (DBDCB) AND ZINC PYRITHIONE (ZPT)” (LANXESS Deutschland GmbH, priority 2014, published 2019):

Tests used:
Format in all cases: cell-based
Conditions in all cases: for Activity of the biocides determined 1 week after germ addition, week 1: week 1, polymer emulsion pH 6.5; for Activity of the biocides determined 1 week after germ addition, week 2: week 2, polymer emulsion pH 6.5; for Activity of the biocides determined 1 week after germ addition, week 3: week 3, polymer emulsion pH 6.5; for Activity of the biocides determined 1 week after germ addition, week 4: week 4, polymer emulsion pH 6.5; for Activity of the biocides determined 1 week after germ addition, week 5: week 5, polymer emulsion pH 6.5; for Activity of the biocides determined 1 week after germ addition, week 6: week 6, polymer emulsion pH 6.5
[1] = test system: Yeasts: Candida albicans and Rhodotorula rubra; experiment: Microbiological stress test, preservation of a polymer emulsion: yeasts
Description: (§1) The preserving effect of an inventive composition comprising DBDCB and ZPT in a polymer emulsion (acrylate-based, pH=6.5) was investigated using a microbiological stress test. The microbiological stress test examines the susceptibility of water-based systems to microbial attack and the effect of preservatives. To this end, the preservatives are incorporated in defined concentrations into the water-based systems. […] Having knowledge of the microorganism populations prevalent in polymer emulsions and dispersions the experiment employed a mixture of the following microorganism types for testing: Yeasts: Candida albicans and Rhodotorula rubra.

[2] = test system: Molds: Acremonium strictum, Aspergillus niger and Geotrichum candidu; experiment: Microbiological stress test, preservation of a polymer emulsion: molds
Description: as §1, with “Molds: Acremonium strictum, Aspergillus niger” for “Yeasts: Candida albicans”, “Geotrichum candidu.” for “Rhodotorula rubra.”

[3] = test system: Bacteria: Escherichia coli, Pseudomonas aeruginosa and Staphylococcus aureus; experiment: Microbiological stress test, preservation of a polymer emulsion: bacteria
Description: as §1, with “Bacteria: Escherichia coli, Pseudomonas aeruginosa” for “Yeasts: Candida albicans”, “Staphylococcus aureus.” for “Rhodotorula rubra.”

N#CCCC(Br)(C#N)CBr (stereo not drawn) [DBDCB, 1,2-Dibromo-2,4-dicyanobutane]
Activity of the biocides determined 1 week after germ addition, week 1 ([1]; 0.025 wt % biocide added): 0 (no reduction or only a minor reduction of the microbe level is observed (residual level of at least 10^5 bacteria/10^4 mold/yeast cells per g) (score of 0=poor))
Activity of the biocides determined 1 week after germ addition, week 2 ([1]; 0.025 wt % biocide added): 0 (no reduction or only a minor reduction of the microbe level is observed (residual level of at least 10^5 bacteria/10^4 mold/yeast cells per g) (score of 0=poor))
Activity of the biocides determined 1 week after germ addition, week 3 ([1]; 0.025 wt % biocide added): 0 (no reduction or only a minor reduction of the microbe level is observed (residual level of at least 10^5 bacteria/10^4 mold/yeast cells per g) (score of 0=poor))
Activity of the biocides determined 1 week after germ addition, week 4 ([1]; 0.025 wt % biocide added): 0 (no reduction or only a minor reduction of the microbe level is observed (residual level of at least 10^5 bacteria/10^4 mold/yeast cells per g) (score of 0=poor))
Activity of the biocides determined 1 week after germ addition, week 5 ([1]; 0.025 wt % biocide added): 0 (no reduction or only a minor reduction of the microbe level is observed (residual level of at least 10^5 bacteria/10^4 mold/yeast cells per g) (score of 0=poor))
Activity of the biocides determined 1 week after germ addition, week 6 ([1]; 0.025 wt % biocide added): 0 (no reduction or only a minor reduction of the microbe level is observed (residual level of at least 10^5 bacteria/10^4 mold/yeast cells per g) (score of 0=poor))
Activity of the biocides determined 1 week after germ addition, week 1 ([1]; 0.05 wt % biocide added): 0 (no reduction or only a minor reduction of the microbe level is observed (residual level of at least 10^5 bacteria/10^4 mold/yeast cells per g) (score of 0=poor))
Activity of the biocides determined 1 week after germ addition, week 2 ([1]; 0.05 wt % biocide added): 0 (no reduction or only a minor reduction of the microbe level is observed (residual level of at least 10^5 bacteria/10^4 mold/yeast cells per g) (score of 0=poor))
Activity of the biocides determined 1 week after germ addition, week 3 ([1]; 0.05 wt % biocide added): 0 (no reduction or only a minor reduction of the microbe level is observed (residual level of at least 10^5 bacteria/10^4 mold/yeast cells per g) (score of 0=poor))
Activity of the biocides determined 1 week after germ addition, week 4 ([1]; 0.05 wt % biocide added): 0 (no reduction or only a minor reduction of the microbe level is observed (residual level of at least 10^5 bacteria/10^4 mold/yeast cells per g) (score of 0=poor))
Activity of the biocides determined 1 week after germ addition, week 5 ([1]; 0.05 wt % biocide added): 0 (no reduction or only a minor reduction of the microbe level is observed (residual level of at least 10^5 bacteria/10^4 mold/yeast cells per g) (score of 0=poor))
Activity of the biocides determined 1 week after germ addition, week 6 ([1]; 0.05 wt % biocide added): 0 (no reduction or only a minor reduction of the microbe level is observed (residual level of at least 10^5 bacteria/10^4 mold/yeast cells per g) (score of 0=poor))
Activity of the biocides determined 1 week after germ addition, week 1 ([2]; 0.025 wt % biocide added): 0 (no reduction or only a minor reduction of the microbe level is observed (residual level of at least 10^5 bacteria/10^4 mold/yeast cells per g) (score of 0=poor))
Activity of the biocides determined 1 week after germ addition, week 2 ([2]; 0.025 wt % biocide added): 0 (no reduction or only a minor reduction of the microbe level is observed (residual level of at least 10^5 bacteria/10^4 mold/yeast cells per g) (score of 0=poor))
Activity of the biocides determined 1 week after germ addition, week 3 ([2]; 0.025 wt % biocide added): 0 (no reduction or only a minor reduction of the microbe level is observed (residual level of at least 10^5 bacteria/10^4 mold/yeast cells per g) (score of 0=poor))
Activity of the biocides determined 1 week after germ addition, week 4 ([2]; 0.025 wt % biocide added): 0 (no reduction or only a minor reduction of the microbe level is observed (residual level of at least 10^5 bacteria/10^4 mold/yeast cells per g) (score of 0=poor))
Activity of the biocides determined 1 week after germ addition, week 5 ([2]; 0.025 wt % biocide added): 0 (no reduction or only a minor reduction of the microbe level is observed (residual level of at least 10^5 bacteria/10^4 mold/yeast cells per g) (score of 0=poor))
Activity of the biocides determined 1 week after germ addition, week 6 ([2]; 0.025 wt % biocide added): 0 (no reduction or only a minor reduction of the microbe level is observed (residual level of at least 10^5 bacteria/10^4 mold/yeast cells per g) (score of 0=poor))
Activity of the biocides determined 1 week after germ addition, week 1 ([2]; 0.05 wt % biocide added): 0 (no reduction or only a minor reduction of the microbe level is observed (residual level of at least 10^5 bacteria/10^4 mold/yeast cells per g) (score of 0=poor))
Activity of the biocides determined 1 week after germ addition, week 2 ([2]; 0.05 wt % biocide added): 0 (no reduction or only a minor reduction of the microbe level is observed (residual level of at least 10^5 bacteria/10^4 mold/yeast cells per g) (score of 0=poor))
Activity of the biocides determined 1 week after germ addition, week 3 ([2]; 0.05 wt % biocide added): 0 (no reduction or only a minor reduction of the microbe level is observed (residual level of at least 10^5 bacteria/10^4 mold/yeast cells per g) (score of 0=poor))
Activity of the biocides determined 1 week after germ addition, week 4 ([2]; 0.05 wt % biocide added): 0 (no reduction or only a minor reduction of the microbe level is observed (residual level of at least 10^5 bacteria/10^4 mold/yeast cells per g) (score of 0=poor))
Activity of the biocides determined 1 week after germ addition, week 5 ([2]; 0.05 wt % biocide added): 0 (no reduction or only a minor reduction of the microbe level is observed (residual level of at least 10^5 bacteria/10^4 mold/yeast cells per g) (score of 0=poor))
Activity of the biocides determined 1 week after germ addition, week 6 ([2]; 0.05 wt % biocide added): 0 (no reduction or only a minor reduction of the microbe level is observed (residual level of at least 10^5 bacteria/10^4 mold/yeast cells per g) (score of 0=poor))
Activity of the biocides determined 1 week after germ addition, week 1 ([3]; 0.025 wt % biocide added): 0 (no reduction or only a minor reduction of the microbe level is observed (residual level of at least 10^5 bacteria/10^4 mold/yeast cells per g) (score of 0=poor))
Activity of the biocides determined 1 week after germ addition, week 2 ([3]; 0.025 wt % biocide added): 0 (no reduction or only a minor reduction of the microbe level is observed (residual level of at least 10^5 bacteria/10^4 mold/yeast cells per g) (score of 0=poor))
Activity of the biocides determined 1 week after germ addition, week 3 ([3]; 0.025 wt % biocide added): 0 (no reduction or only a minor reduction of the microbe level is observed (residual level of at least 10^5 bacteria/10^4 mold/yeast cells per g) (score of 0=poor))
Activity of the biocides determined 1 week after germ addition, week 4 ([3]; 0.025 wt % biocide added): 0 (no reduction or only a minor reduction of the microbe level is observed (residual level of at least 10^5 bacteria/10^4 mold/yeast cells per g) (score of 0=poor))
Activity of the biocides determined 1 week after germ addition, week 5 ([3]; 0.025 wt % biocide added): 0 (no reduction or only a minor reduction of the microbe level is observed (residual level of at least 10^5 bacteria/10^4 mold/yeast cells per g) (score of 0=poor))
Activity of the biocides determined 1 week after germ addition, week 6 ([3]; 0.025 wt % biocide added): 0 (no reduction or only a minor reduction of the microbe level is observed (residual level of at least 10^5 bacteria/10^4 mold/yeast cells per g) (score of 0=poor))
Activity of the biocides determined 1 week after germ addition, week 1 ([3]; 0.05 wt % biocide added): 0 (no reduction or only a minor reduction of the microbe level is observed (residual level of at least 10^5 bacteria/10^4 mold/yeast cells per g) (score of 0=poor))
Activity of the biocides determined 1 week after germ addition, week 2 ([3]; 0.05 wt % biocide added): 0 (no reduction or only a minor reduction of the microbe level is observed (residual level of at least 10^5 bacteria/10^4 mold/yeast cells per g) (score of 0=poor))
Activity of the biocides determined 1 week after germ addition, week 3 ([3]; 0.05 wt % biocide added): 0 (no reduction or only a minor reduction of the microbe level is observed (residual level of at least 10^5 bacteria/10^4 mold/yeast cells per g) (score of 0=poor))
Activity of the biocides determined 1 week after germ addition, week 4 ([3]; 0.05 wt % biocide added): 0 (no reduction or only a minor reduction of the microbe level is observed (residual level of at least 10^5 bacteria/10^4 mold/yeast cells per g) (score of 0=poor))
Activity of the biocides determined 1 week after germ addition, week 5 ([3]; 0.05 wt % biocide added): 0 (no reduction or only a minor reduction of the microbe level is observed (residual level of at least 10^5 bacteria/10^4 mold/yeast cells per g) (score of 0=poor))
Activity of the biocides determined 1 week after germ addition, week 6 ([3]; 0.05 wt % biocide added): 0 (no reduction or only a minor reduction of the microbe level is observed (residual level of at least 10^5 bacteria/10^4 mold/yeast cells per g) (score of 0=poor))
